{"source": "patent US20260115122A1", "about": "“PERSONAL CARE COMPOSITIONS COMPRISING PANCRATIUM MARITIMUM” (GALDERMA HOLDING SA, priority 2022, published 2026)", "test_system": "Normal Human Epidermal Melanocytes darkly-pigmented (NHEM-DP)", "assay": "Melanin content (melanin reduction) assay", "format": "cell-based", "settings": "72 h treatment, test product 0.004%, n=3, FIG. 2", "experimental": "Normal Human Epidermal Melanocytes—NHEMs-DP. Normal Human Epidermal Melanocytes darkly-pigmented (NHEM-DP; Thermo Fisher Scientific, C1025C) were grown in M254 medium (Thermo Fisher Scientific, M254500) supplemented with Human Melanocyte Growth Supplement (HMGS; Thermo Fisher Scientific, S0025) and antibiotics (Gentamycin, Thermo Fisher Scientific, 15710049). The cells were maintained in a humidified incubator at 37° C. with a 5% CO2 atmosphere.\nAt the end of treatment, NHEM-DP cells (n=3) were lysed using NaOH (1N; Merck, 109956) solution. From the collected extracts, the protein content was quantified by a colorimetric assay (Pierce Coomassie Protein Assay Kit, Thermo Fischer Scientific, 23200) using a spectrophotometer (GloMax Explorer GM3500, Microplate Reader) for reading of the optical density at 600 nm. The melanin content was determined after sample heating for 1 h at 80° C. for its solubilization and reading of the optical density at 490 nm. Afterwards, the amount of melanin was determined on the basis of a standard curve using synthetic melanin (Sigma Aldrich, 8631) and then normalized to the total protein content. […]\nAt the end of the treatments, intracellular melanin was extracted from cell cultures and analyzed as described in materials and methods in Example 1. […]"}
{"smiles": "O=c1cc(CO)occ1O", "note": "[Kojic acid]", "values": [{"measurement": "melanin content vs untreated control", "result": "significantly decreased the melanin content"}]}
